Consider two compounds from US20110110916A1, “METHODS FOR TREATING AND/OR PREVENTING CARDIOMYOPATHIES BY ERK OR JNK INHIBITION” (priority 2008, published 2011).

Holding throughout (format): in vivo, mouse
The subject of assay [1] is hearts from Lmna^H222P/H222P mice. The assay can be described thus: Quantitative real-time RT-PCR of mRNAs in hearts of treated mice. The settings on record: for expression of Colla1, Colla2 and Fn1 / expression of Mlc-2a, NppA and NppB mRNAs: 20 weeks of age, 3 mg/kg/day from 16 to 20 weeks. The source says: Total RNA was extracted using the Rneasy isolation kit (Qiagen) as previously described (96). cDNA was synthesized as previously described (96) using Omniscript Reverse Transcriptase (Qiagen) on total cellular RNA. For each replicate in each experiment, RNA from tissue samples of different animals was used. Primers were designed that correspond to mouse RNA sequences using Primer3 (http://frodo.wi.mit.edu/cgi-biniprimer3/primer3_www.cgi). The real-time RT-PCR reaction contained iQ SYBR green super mix (Bio-Rad), 200 nM of each primer and 0.2 μl of template in a 25 μl reaction volume. Amplification was carried out using appropriate primers and the MyiQ Single-Color Real-Time PCR Detection System (Bio-Rad) with an initial denaturation at 95° C. for 2 min followed by 50 cycles at 95° C. for 30 s and 62° C. for 30 s. Relative levels of mRNA expression were calculated using the CT method (67). Individual expression values were normalized by comparison with Gapdh mRNA.
Real-time reverse transcription-PCR (RT-PCR) was used to quantify tissue RNA levels. Total RNA was extracted from cardiac ventricles of mice using the Rneasy isolation kit (Qiagen) as previously described. cDNA was synthesized using Superscript first strand synthesis system according to the manufacturer's instructions (Invitrogen) on total RNA. For each replicate in each experiment, RNA from tissue samples of different animals was used. Primers were designed correspond to mouse RNA sequences using Primer3 (http://frodo.wi.mit.edu/cgi-bin/primer3/primer3_www.cgi) for Nppa (forward 5′-[…]-3′ [SEQ ID NO: 4], reverse 5′-[…]-3′ [SEQ ID NO: 5]), Nppb (forward 5′-[…]-3′ [SEQ ID NO: 6], reverse 5′-[…]-3′ [SEQ ID NO: 7]), Mlc-2a (forward 5′-[…]-3′ [SEQ ID NO: 8], reverse 5′-[…]-3′ [SEQ ID NO: 9]), Colla1 (forward 5′-[…]-3′ [SEQ ID NO: 10], reverse 5′-[…]-3′ [SEQ ID NO: 11]), Colla2 (forward 5′-[…]-3′ [SEQ ID NO: 12], reverse 5′-[…]-3′ [SEQ ID NO: 13]) and Fn1 (forward 5′-[…]-3′ [SEQ ID NO: 14], reverse 5′-[…]-3′ [SEQ ID NO: 15]). The real-time RT-PCR reaction contained iQ SYBR green super mix (Bio-Rad), 200 nM of each primer, and 0.2 μl of template in a 25 μl reaction volume. Amplification was carried out using the MyiQ Single-Color Real-Time PCR Detection System (Bio-Rad) with an initial denaturation at 95° C. for […] followed by 50 cycles at 95° C. for 30 s and 62° C. for 30 s. Relative levels of mRNA expression were calculated using the ΔΔCT method (2). Individual expression values were normalized by comparison with Gapdh mRNA (forward 5′-[…]-3′ [SEQ ID NO: 16], reverse 5′-[…]-3′ [SEQ ID NO: 17]).
For orientation: In qPCR the cycle at which signal appears reflects the starting amount.

For assay [2] the test system is unchanged. The assay is described as follows: Histopathological analysis of hearts (left ventricle, cardiomyocyte nuclear length). The settings on record: for mean lengths of nuclei in cardiomyocytes compared to the DMSO-treated group: 20 weeks of age, treated 16 to 20 weeks. As for the experimental part:
Mice were sacrificed at 16 weeks of age and freshly removed hearts were fixed in 4% formaldehyde for 48 hours, embedded in paraffin, sectioned at […] and stained with hematoxylin and eosin and Masson's trichrome. Representative stained sections were photographed using a Microphot SA (Nikon) light microscope attached to a Spot RT Slide camera (Diagnostic Instruments). Images were processed using Adobe Photoshop 6.0 (Adobe Systems). Length of cardiomyocytes was measured using Scion Image software (Scion Corporation). Data were reported as means±standard deviations and are compared with respective controls using a two-tailed t test.
Mice were sacrificed at 20 weeks of age, and freshly removed hearts were fixed in 4% formaldehyde for 48 hours, embedded in paraffin, sectioned at 5 μm and stained with hematoxylin, eosin and Gomori's trichrome and Syrius Red. Representative stained sections were photographed using a Microphot SA (Nikon) light microscope attached to a Spot RT Slide camera (Diagnostic Instruments) with a 10× objective. Images were processed using Adobe Photoshop CS (Adobe Systems).

A further assay relates to Lmna^H222P/H222P mice. The settings on record: for development of LV dilatation: echocardiography (PD98059 also histopathology); for EF / FS / IVSD / LVEDD / LVESD / LVPW: Lmna^H222P/H222P mice at 16 weeks of age, i.p. 5 days a week from 8 to 16 weeks (PD98059, SP600125 3 mg/kg/day), means ± standard deviations. As to the method: PD98059 (Calbiochem) and SP600125 (Calbiochem) were dissolved in Dimethyl Sulfoxide (DMSO, Sigma) at a concentration of 0.5 mg/ml and were delivered to a dose of 3 mg/kg/day for 5 days a week. […] The placebo control consisted of DMSO alone. Placebo and inhibitors were administered by intraperitoneal injection using a 27G^5/8 syringe. Treatment was started when mice were 8 weeks of age and continued until 16 weeks of age.
Lmna H222P knock-in mice were generated and genotyped as described (14). […] Lmna^H222P/H222P mice were separated by sex and were given either vehicle alone (DMSO), the MEK inhibitor PD98059 alone, the JNK inhibitor SP600125 alone, both PD98059 and SP600125 together, the MEK inhibitor U0126 alone, or the MEK inhibitor MEK1/2 alone. All the mice were fed on a chow diet and housed in a barrier facility. The Institutional Animal Care and Use Committee at Columbia University Medical Center approved the use of animals in the study protocol.
Cardiac function was assessed by echocardiography with a Visualsonics Vevo 770 ultrasound with a 30-MHz transducer applied to the chest wall. Cardiac ventricular dimensions and ejection fraction were measured in 2D-mode and M-mode three times for the number of animals indicated. A “blinded” echocardiographer, unaware of the genotype or treatment, performed the examinations.
We administered PD98059, at a dose of 3 mg/kg/day or 6 mg/kg/day, or placebo (dimethylsulfoxide; DMSO) by intraperitoneal injection 5 days a week to male homozygous Lmna mutant mice (Lmna^H222P/H222P). […] PD98059 mediates its inhibitory properties by binding to MEK, therefore preventing phosphorylation of ERK1/2.
Treatment was initiated at 8 weeks of age and continued until the mice were 16 weeks of age. At 16 weeks of age, the mice were analyzed by echocardiography and then sacrificed for histological and biochemical studies. Untreated male Lmna^+/+ and Lmna^H222P/H222P mice were similarly analyzed for comparisons.

The mark [3] stands for this setting: pilot study, 24 weeks, treated from 19 weeks.
Setting [4] is: 16 weeks of age, treated 8 to 16 weeks.

For the compound `O=C1c2ccccc2-c2n[nH]c3cccc1c23` [SP600125, anthra[1,9-cd]pyrazol-6(2H)-one], in assay [1], the “expression of Colla1, Colla2 and Fn1” value is “significantly lowered”; the “expression of Mlc-2a, NppA and NppB mRNAs” value is listed as “significantly decreased”. Further, the “cardiac expression of Mlc-2a, NppA, Colla1 and Colla2 mRNAs” value in assay [1] (setting [3]) is recorded as “significantly reduced”. For the same compound, the “mean lengths of nuclei in cardiomyocytes compared to the DMSO-treated group” value in assay [2] is recorded as “significantly shorter”. Moreover, the “development of LV dilatation” value with Lmna^H222P/H222P mice (setting [4]) is on record as “prevented development of LV dilatation”. In the assay on Lmna^H222P/H222P mice, this compound had an EF of 69.24 ± 9.59 %, an FS of 38.70 ± 7.38 %, an IVSD of 0.72 ± 0.07 mm and an LVEDD of 3.46 ± 0.27 mm. Further, in the assay on Lmna^H222P/H222P mice, the LVESD is listed as 2.30 ± 0.45 mm and the LVPW was determined as 0.73 ± 0.08 mm.
As for `COc1cccc(-c2cc(=O)c3ccccc3o2)c1N` [PD98059, 2-(2-amino-3-methoxyphenyl)-4H-1-benzopyran-4-one], in assay [1], the “expression of Colla1, Colla2 and Fn1” value is reported as “significantly lowered”; the “expression of Mlc-2a, NppA and NppB mRNAs” value is “significantly decreased”. In addition, the “expression of Elk1, Elk4, Atf2 and Atf4” value in assay [1] (hearts at 16 weeks, treated 8 to 16 weeks) was “decreased expression”. Moreover, in assay [1] (setting [3]), the “cardiac expression of Mlc-2a, NppA, Colla1 and Colla2 mRNAs” value is listed as “significantly reduced”; the “cardiac expression of NppB mRNA” value was “significantly reduced”. For the same compound, in assay [2] (16 week-old mice, treated 8 to 16 weeks), the “abnormal elongation of cardiomyocyte nuclei” value is recorded as “prevented”. In assay [2], the “mean lengths of nuclei in cardiomyocytes compared to the DMSO-treated group” value is listed as “significantly shorter”. Further, in the assay with Lmna^H222P/H222P mice (16 weeks of age, treated 8 to 16 weeks, compared with Lmna^+/+ mice), the “cardiac contractility (ejection fraction and LV fractional shortening)” value is listed as “normal cardiac contractility”. In addition, the “development of LV dilatation” value in the assay on Lmna^H222P/H222P mice (setting [4]) is reported as “prevented development of LV dilatation”. In the assay on Lmna^H222P/H222P mice, this compound registered an EF of 73.52 ± 4.68 %, an FS of 41.55 ± 4.29 %, an IVSD of 0.69 ± 0.06 mm and an LVEDD of 3.12 ± 0.20 mm. In addition, in the assay on Lmna^H222P/H222P mice, the LVESD was found to be 1.82 ± 0.16 mm and the LVPW is on record as 0.77 ± 0.10 mm.
